According to paper PMC7081834 (Science (New York, N.Y.), 2019):

Target: WWP1 (WW domain–containing ubiquitin E3 ligase 1) (Homo sapiens, UniProt Q9H0M0, F577A/Y656A)
Experiment: microscale thermophoresis
Format: binding

WWP1 (WW domain–containing ubiquitin E3 ligase 1), sequence (Q9H0M0 546-922 F577A/Y656A limits assumed): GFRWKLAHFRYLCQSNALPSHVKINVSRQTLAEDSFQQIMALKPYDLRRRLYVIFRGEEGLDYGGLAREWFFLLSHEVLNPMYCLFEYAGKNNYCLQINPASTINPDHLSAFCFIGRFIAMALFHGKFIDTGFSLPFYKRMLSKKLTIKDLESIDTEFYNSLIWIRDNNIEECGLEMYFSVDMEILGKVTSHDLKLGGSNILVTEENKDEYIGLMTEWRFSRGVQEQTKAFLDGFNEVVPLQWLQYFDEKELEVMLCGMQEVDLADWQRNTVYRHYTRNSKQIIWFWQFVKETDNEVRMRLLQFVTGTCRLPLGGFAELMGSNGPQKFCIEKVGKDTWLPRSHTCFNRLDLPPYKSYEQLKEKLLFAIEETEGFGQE

Kd: ~7.72 µM
Compound: OCc1c[nH]c2ccccc12 [I3C, indole-3-carbinol]
